Measured values as given in US12630498B2 (Genzyme Corporation, priority 2019, dated 2026).

Tests used:
[1] = target: T1, CFTR-mediated transepithelial chloride transport in primary human bronchial epithelial cells from a ΔF508 homozygous CF donor (Homo sapiens, UniProt P13569, DEL508-508); experiment: TECC24 recording of CFTR-mediated transepithelial chloride transport in CF-HBE cells (AUC fold over DMSO); format: cell-based; settings: test agent 10 μM, 48 hours incubation, AUC of forskolin-stimulated IEQ relative to DMSO
T1 construct: Primary human bronchial epithelial cells from a ΔF508 homozygous CF donor; host or cells: primary CF-HBE cells, ΔF508 homozygous donor
Method in brief: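 Equivalent Cl⁻ current was derived from transepithelial voltage and resistance, and its AUC from forskolin (10 μM) to CFTRinh-172 (20 μM) was divided by the DMSO AUC. Benzamil 10 μM blocked ENaC. Cells were ΔF508-homozygous primary bronchial epithelia pretreated 48 h at 36.5 °C in IL-13 medium.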

[2] = target: T2, human Cystic Fibrosis Transmembrane Conductance Regulator (CFTR) harboring the ΔF508 mutation (Homo sapiens, UniProt P13569, DEL508-508); experiment: H441 cell ΔF508-CFTR-HRP cell surface assay (Emax and EC50); format: cell-based; settings: for Emax: NCI-H441, NA = Not active
T2 construct: expressed in transfected cells; host or cells: H441 carcinoma line (G418-selected)
Method in brief: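 H441 and 41o- bronchial epithelial cells expressing ΔF508-CFTR with an extracellular-loop-4 HRP tag were treated with a 15-point compound series (24.5–0.001 μM) for two nights, H441 at 27° C, 41o- at 37° C with 0.0005 mg/ml doxycycline. Surface HRP luminescence read; % of maximum VX809 signal and EC50 derived.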

T1 sequence (P13569 with tags, fused parts or gaps DEL508-508): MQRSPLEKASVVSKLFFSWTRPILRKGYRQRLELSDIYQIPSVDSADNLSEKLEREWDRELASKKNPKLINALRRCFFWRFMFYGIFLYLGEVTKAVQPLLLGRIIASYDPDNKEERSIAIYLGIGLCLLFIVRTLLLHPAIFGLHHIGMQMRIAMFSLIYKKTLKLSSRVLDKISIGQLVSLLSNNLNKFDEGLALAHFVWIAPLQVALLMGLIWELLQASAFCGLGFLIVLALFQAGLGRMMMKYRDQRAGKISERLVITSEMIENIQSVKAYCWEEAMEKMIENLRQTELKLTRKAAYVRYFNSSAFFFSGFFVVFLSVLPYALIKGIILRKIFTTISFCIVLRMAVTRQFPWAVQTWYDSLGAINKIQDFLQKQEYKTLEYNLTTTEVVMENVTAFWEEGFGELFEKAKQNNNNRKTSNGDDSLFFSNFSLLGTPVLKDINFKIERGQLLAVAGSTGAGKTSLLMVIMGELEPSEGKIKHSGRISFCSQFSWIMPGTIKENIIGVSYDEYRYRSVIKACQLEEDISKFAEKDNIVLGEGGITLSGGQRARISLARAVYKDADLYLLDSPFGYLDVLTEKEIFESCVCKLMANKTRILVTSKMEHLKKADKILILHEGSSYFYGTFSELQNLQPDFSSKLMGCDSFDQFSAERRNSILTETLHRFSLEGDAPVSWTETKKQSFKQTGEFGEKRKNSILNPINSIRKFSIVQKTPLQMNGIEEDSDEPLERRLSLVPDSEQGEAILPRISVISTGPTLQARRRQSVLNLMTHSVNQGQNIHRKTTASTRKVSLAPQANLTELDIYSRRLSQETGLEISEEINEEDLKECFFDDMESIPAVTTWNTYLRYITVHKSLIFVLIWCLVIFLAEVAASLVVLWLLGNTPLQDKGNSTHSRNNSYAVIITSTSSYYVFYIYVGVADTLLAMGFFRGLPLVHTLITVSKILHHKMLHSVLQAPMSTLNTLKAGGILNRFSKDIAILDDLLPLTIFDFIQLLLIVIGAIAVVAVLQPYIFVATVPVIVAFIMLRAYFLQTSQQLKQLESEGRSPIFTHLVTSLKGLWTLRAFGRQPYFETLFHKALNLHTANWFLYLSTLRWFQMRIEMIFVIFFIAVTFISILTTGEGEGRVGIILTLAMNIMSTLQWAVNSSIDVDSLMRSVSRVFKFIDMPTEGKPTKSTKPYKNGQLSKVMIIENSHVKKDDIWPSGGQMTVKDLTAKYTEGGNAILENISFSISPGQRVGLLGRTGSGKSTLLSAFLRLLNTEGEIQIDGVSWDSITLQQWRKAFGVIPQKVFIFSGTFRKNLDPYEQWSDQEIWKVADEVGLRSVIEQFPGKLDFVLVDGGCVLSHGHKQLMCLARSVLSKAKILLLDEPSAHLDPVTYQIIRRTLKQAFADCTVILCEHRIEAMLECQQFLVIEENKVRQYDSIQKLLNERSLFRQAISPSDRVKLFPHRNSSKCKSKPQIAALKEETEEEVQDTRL
T2 sequence (P13569 with tags, fused parts or gaps DEL508-508): as above

| TECC24 AUC fold over DMSO @10 μM [1] | EC50 [2] [nM] | Emax [2] [%] | SMILES |
| --- | --- | --- | --- |
| A (“A” refers to AUC @10 uM >6) | 1000 | 281 | CCC(C)(C)[C@H](NC(=O)c1ccc2ccc(C)cc2c1OCCCC(C)C)C(=O)O [Example 294, 3,3-Dimethyl-2-{[7-methyl-1-(4-methyl-pentyloxy)-naphthalene-2-carbonyl]-amino}-pentanoic Acid] |
| C (“C” refers to AUC @10 uM <4) | 3400 | 113 | CC(C)(SCC1CC1(F)F)[C@H](NC(=O)c1ccc2ccccc2c1OCC1CCCCC1)C(=O)O (stereo partly drawn) [Example 165, (2R)-2-(1-(cyclohexylmethoxy)-2-naphthamido)-3-(((2,2-difluorocyclopropyl)methyl)thio)-3-methylbutanoic Acid] |
| C (“C” refers to AUC @10 uM <4) | 800 | 122 | O=C(NC(C(=O)O)C1(C(F)(F)F)CC1)c1ccc2ccc(F)cc2c1OCc1ccc(OC(F)(F)F)cc1 (stereo not drawn) [Example 240, 2-(7-fluoro-1-((4-(trifluoromethoxy)benzyl)oxy)-2-naphthamido)-2-(1-(trifluoromethyl)cyclopropyl)acetic Acid] |
| C (“C” refers to AUC @10 uM <4) | 1900 | 104 | CC1(C(NC(=O)c2ccc3ccccc3c2OCc2ccc(S(F)(F)(F)(F)F)cc2)C(=O)O)CC1 (stereo not drawn) [Example 68, 2-(1-methylcyclopropyl)-2-(1-((4-(pentafluoro-l6-sulfanyl)benzyl)oxy)-2-naphthamido)acetic Acid] |
| C (“C” refers to AUC @10 uM <4) | 1100 | 84 | CC(C)(C)C[C@H](NC(=O)c1ccc2ccccc2c1OCc1ccc(SC(F)(F)F)cc1)C(=O)O [Example 115, (S)-4,4-dimethyl-2-(1-((4-((trifluoromethyl)thio)benzyl)oxy)-2-naphthamido)pentanoic Acid] |
| C (“C” refers to AUC @10 uM <4) | 4900 | 70.2 | COC(=O)c1ccc(COc2c(C(=O)N[C@H](C(=O)O)C(C)(C)C)ccc3ccccc23)cc1 [Example 28, (S)-2-(1-((4-(methoxycarbonyl)benzyl)oxy)-2-naphthamido)-3,3-dimethylbutanoic Acid] |
| C (“C” refers to AUC @10 uM <4) | 1400 | 118 | COC(C)(C)[C@H](NC(=O)c1ccc2ccccc2c1OCc1ccc(C(F)(F)F)cc1)C(=O)O [Example 139, (S)-3-methoxy-3-methyl-2-(1-((4-(trifluoromethyl)benzyl)oxy)-2-naphthamido)butanoic Acid] |
| A (“A” refers to AUC @10 uM >6) | 400 | 191 | C#CC(C)(C)C(NC(=O)c1ccc2ccc(C)cc2c1OCc1ccc(C(F)(F)F)cc1)C(=O)O (stereo not drawn) [Example 219, 3,3-dimethyl-2-[[7-methyl-1-[[4-(trifluoromethyl)phenyl]methoxy]naphthalene-2-carbonyl]amino]pent-4-ynoic Acid] |
| C (“C” refers to AUC @10 uM <4) | 8000 | 77.1 | CC(C)(C)[C@H](NC(=O)c1ccc2ccccc2c1OCc1ccc(C#N)cc1)C(=O)O [Example 31, (S)-2-(1-((4-cyanobenzyl)oxy)-2-naphthamido)-3,3-dimethylbutanoic Acid] |
| A (“A” refers to AUC @10 uM >6) | 300 | 349 | CCC(C)(C)[C@H](NC(=O)c1ccc2ccc(OC)cc2c1OCc1ccc(C(F)(F)F)cc1)C(=O)O [Example 309, (S)-2-(7-methoxy-1-((4-(trifluoromethyl)benzyl)oxy)-2-naphthamido)-3,3-dimethylpentanoic Acid] |
| C (“C” refers to AUC @10 uM <4) | 2800 | 139 | CC(C)(C)[C@H](NC(=O)c1ccc2ccccc2c1OCc1nc2ccccc2s1)C(=O)O [Example 58, (S)-2-(1-(benzo[d]thiazol-2-ylmethoxy)-2-naphthamido)-3,3-dimethylbutanoic Acid] |
